Test results from US20250230193A1, “CYCLIC COMPOUND HAVING SELECTIVE KRAS INHIBITORY EFFECT ON HRAS AND NRAS” (CHUGAI SEIYAKU KABUSHIKI KAISHA, priority 2022, published 2025).

Legend:
[1] = target: GDP-bound HRAS wild-type protein (Homo sapiens, UniProt P01112); experiment: Binding to HRAS by surface plasmon resonance (SPR), Single Cycle Kinetics; conditions: SPR; KD ratio class
[2] = tested on: human lung cancer strain NCI-H441; experiment: cells; conditions: NCI-H441, 96 h, read-out: NCI-H441 IC50 (nM)
[3] = target: GDP-bound NRAS wild-type protein (Homo sapiens, UniProt P01111); experiment: Binding to NRAS by surface plasmon resonance (SPR), Single Cycle Kinetics; conditions: SPR; KD ratio class
GDP-bound NRAS wild-type protein, sequence (P01111 whole entry): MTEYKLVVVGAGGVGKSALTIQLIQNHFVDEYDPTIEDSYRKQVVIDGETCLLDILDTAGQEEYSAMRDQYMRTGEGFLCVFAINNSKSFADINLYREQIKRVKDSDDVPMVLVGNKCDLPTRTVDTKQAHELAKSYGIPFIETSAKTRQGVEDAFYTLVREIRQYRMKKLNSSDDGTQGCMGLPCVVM

GDP-bound HRAS wild-type protein, sequence (P01112 whole entry): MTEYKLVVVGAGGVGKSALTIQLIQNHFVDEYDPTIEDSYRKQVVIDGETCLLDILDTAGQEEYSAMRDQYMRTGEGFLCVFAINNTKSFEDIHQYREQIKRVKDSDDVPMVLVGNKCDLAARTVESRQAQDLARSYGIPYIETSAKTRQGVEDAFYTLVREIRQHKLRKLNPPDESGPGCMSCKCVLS

Row | SMILES | IC50 [2] | HRAS/KRAS (ratio of KD value for GDP-bound HRAS wild-type protein to KD value for KRAS) [1] | NRAS/KRAS (ratio of KD value for GDP-bound NRAS wild-type protein to KD value for KRAS) [3]
1 | CCCCCC[C@H]1C(=O)N[C@@H]([C@@H](C)CC)C(=O)N(C)CC(=O)N(C)[C@H]2C/C=C\CCN(C2=O)[C@@H](Cc2ccc(C(F)(F)F)cc2)C(=O)N(C)CC(=O)N[C@@H](CCc2ccc3sccc3c2)C(=O)N2C[C@H](OCC)C[C@H]2C(=O)NC2(CCC2)C(=O)N(C)[C@@H](C(CC)CC)C(=O)N(C)[C@H](C(=O)N(C)C)CC(=O)N1C [PP1226] | 106 nM | A (a compound having 10 or more and less than 20 is denoted as A) | AA (a compound having 20 or more is denoted as AA)
2 | CCO[C@@H]1C[C@H]2C(=O)NC3(CCC3)C(=O)N(C)[C@@H](C(CC)CC)C(=O)N(C)[C@H](C)CC(=O)N(C)[C@@H](CC(C)C)C(=O)N[C@@H]([C@@H](C)CC)C(=O)N(C)CC(=O)N(C)[C@H]3C/C=C\CCN(C3=O)[C@@H](Cc3ccc(F)cc3C)C(=O)N(C)CC(=O)N[C@@H](CCc3cc(F)c(C(F)(F)F)c(F)c3)C(=O)N2C1 [PP1524] | 439 nM | B (a compound having 3 or more and less than 10 is denoted as B) | B (a compound having 3 or more and less than 10 is denoted as B)
3 | CC[C@H](C)[C@@H]1NC(=O)[C@H](CC)N(C)C(=O)C[C@@H](C(=O)N(C)C)N(C)C(=O)[C@H](C2CCCC2)N(C)C(=O)C2(CCC2)NC(=O)[C@@H]2CCCN2C(=O)[C@H](CCc2cc(F)c(C(F)(F)F)c(F)c2)NC(=O)CN(C)C(=O)[C@H](CC2CCCCC2)N2CC/C=C\C[C@@H](C2=O)N(C)C(=O)CN(C)C1=O [PP1475] | 48.9 nM | A (a compound having 10 or more and less than 20 is denoted as A) | A (a compound having 10 or more and less than 20 is denoted as A)
4 | CC[C@H](C)[C@@H]1NC(=O)[C@H](CC)N(C)C(=O)C[C@@H](C(=O)N(C)C)N(C)C(=O)[C@H](C2CCCC2)N(C)C(=O)C2(CCC2)NC(=O)[C@@H]2CCCN2C(=O)[C@H](CCc2cc(F)c(C(F)(F)F)c(F)c2)NC(=O)CN(C)C(=O)[C@H](CC2CCC(F)(F)CC2)N2CC/C=C\C[C@@H](C2=O)N(C)C(=O)CN(C)C1=O [PP1461] | 121 nM | A (a compound having 10 or more and less than 20 is denoted as A) | A (a compound having 10 or more and less than 20 is denoted as A)
5 | CCO[C@@H]1C[C@H]2C(=O)NC3(CC(C)(C)C3)C(=O)N(C)[C@@H](C3CCCC3)C(=O)N(C)[C@H](C(=O)N(CC)CC)CC(=O)N(C)[C@@H](CC)C(=O)N[C@@H]([C@@H](C)CC)C(=O)N(C)CC(=O)N(C)[C@H]3C/C=C\CCN(C3=O)[C@@H](Cc3ccc(C(F)(F)F)cc3)C(=O)N(C)CC(=O)N[C@@H](CCc3cc(F)c(C(F)(F)F)c(F)c3)C(=O)N2C1 [PP1580] | 9.7 nM | A (a compound having 10 or more and less than 20 is denoted as A) | A (a compound having 10 or more and less than 20 is denoted as A)
6 | CCO[C@@H]1C[C@H]2C(=O)NC3(CC(C)(C)C3)C(=O)N(C)[C@@H](C3CCCC3)C(=O)N(C)[C@H](C(C)C)CC(=O)N(C)[C@@H](CC)C(=O)N[C@@H]([C@@H](C)CC)C(=O)N(C)CC(=O)N(C)[C@H]3C/C=C\CCN(C3=O)[C@@H](Cc3ccc(C(F)(F)F)cc3)C(=O)N(C)CC(=O)N[C@@H](CCc3cc(F)c(C(F)(F)F)c(F)c3)C(=O)N2C1 [PP1588] | 24.2 nM | B (a compound having 3 or more and less than 10 is denoted as B) | B (a compound having 3 or more and less than 10 is denoted as B)
7 | CC[C@H](C)[C@@H]1NC(=O)[C@H](CC2CC2)N(C)C(=O)C[C@@H](C(=O)N(C)C)N(C)C(=O)[C@H](C2CCCC2)N(C)C(=O)C2(CCCC2)NC(=O)[C@@H]2CCCN2C(=O)[C@H](CCc2ccc(C(F)(F)F)c(Cl)c2)NC(=O)CN(C)C(=O)[C@H](Cc2ccc(C(F)(F)F)cc2)N2C[C@H](C)CC[C@@H](C2=O)N(C)C(=O)CN(C)C1=O [PP1346] | 7.2 nM | B (a compound having 3 or more and less than 10 is denoted as B) | B (a compound having 3 or more and less than 10 is denoted as B)
8 | CCO[C@@H]1C[C@H]2C(=O)NC3(CCC3)C(=O)N(C)[C@@H](C3CCCC3)C(=O)N(C)[C@H](C(=O)N(C)C)CC(=O)N(C)[C@@H](CC3CC3)C(=O)N[C@@H]([C@@H](C)CC)C(=O)N(C)CC(=O)N(C)[C@H]3C/C=C\CCN(C3=O)[C@@H](Cc3ccc(F)cc3C)C(=O)N(C)CC(=O)N[C@@H](CCc3cc(F)c(C(F)(F)F)c(F)c3)C(=O)N2C1 [PP1528] | 45.6 nM | B (a compound having 3 or more and less than 10 is denoted as B) | A (a compound having 10 or more and less than 20 is denoted as A)
9 | CCO[C@@H]1C[C@H]2C(=O)NC3(CCCC3)C(=O)N(C)[C@@H](C3CCCC3)C(=O)N(C)[C@H](C(=O)N(C)C)CC(=O)N(C)[C@@H](CC)C(=O)N[C@@H]([C@@H](C)CC)C(=O)N(C)CC(=O)N(C)[C@H]3C[C@@H](C)[C@@H](C)CN(C3=O)[C@@H](Cc3ccc(C(F)(F)F)cc3)C(=O)N(C)CC(=O)N[C@@H](CCc3ccc(C(F)(F)F)c(Cl)c3)C(=O)N2C1 [PP1358] | 4.1 nM | B (a compound having 3 or more and less than 10 is denoted as B) | A (a compound having 10 or more and less than 20 is denoted as A)
10 | CC[C@H](C)[C@@H]1NC(=O)[C@H](CC)N(C)C(=O)C[C@@H](C(=O)N2CCOCC2)N(C)C(=O)[C@H](C2CCCC2)N(C)C(=O)C2(CCCC2)NC(=O)[C@@H]2CCCN2C(=O)[C@H](CCc2ccc(C(F)(F)F)c(Cl)c2)NC(=O)CN(C)C(=O)[C@H](Cc2ccc(C(F)(F)F)cc2)N2C[C@H](C)CC[C@@H](C2=O)N(C)C(=O)CN(C)C1=O [PP1337] | 29.8 nM | B (a compound having 3 or more and less than 10 is denoted as B) | B (a compound having 3 or more and less than 10 is denoted as B)

Now from value to molecule, other results behind:

Row | IC50 [2] | SMILES | HRAS/KRAS (ratio of KD value for GDP-bound HRAS wild-type protein to KD value for KRAS) [1] | NRAS/KRAS (ratio of KD value for GDP-bound NRAS wild-type protein to KD value for KRAS) [3]
11 | 73.4 nM | CC[C@H](C)[C@@H]1NC(=O)[C@H](CC2CC2)N(C)C(=O)C[C@@H](C(=O)N2CCCC2)N(C)C(=O)[C@H](C2CCCC2)N(C)C(=O)C2(CCCC2)NC(=O)[C@@H]2C[C@@H](C(F)(F)F)CN2C(=O)[C@H](CCc2cc(F)c(C(F)(F)F)c(F)c2)NC(=O)CN(C)C(=O)[C@H](Cc2ccc(C(F)(F)F)cc2)N2CC/C=C\C[C@@H](C2=O)N(C)C(=O)CN(C)C1=O [PP1506] | A (a compound having 10 or more and less than 20 is denoted as A) | AA (a compound having 20 or more is denoted as AA)
12 | 2.2 nM | CCO[C@@H]1C[C@H]2C(=O)NC3(CC(C)(C)C3)C(=O)N(C)[C@@H](C3CCCC3)C(=O)N(C)[C@H](C(=O)N(C)C)CC(=O)N(C)[C@@H](CC3CC3)C(=O)N[C@@H]([C@@H](C)CC)C(=O)N(C)CC(=O)N(C)[C@H]3C/C=C\CCN(C3=O)[C@@H](Cc3ccc(C(F)(F)F)cc3)C(=O)N(C)CC(=O)N[C@@H](CCc3cc(F)c(C(F)(F)F)c(F)c3)C(=O)N2C1 [PP1568] | A (a compound having 10 or more and less than 20 is denoted as A) | A (a compound having 10 or more and less than 20 is denoted as A)
13 | 498 nM | CC[C@H](C)[C@@H]1NC(=O)[C@H](CC2CC2)N(C)C(=O)C[C@@H](C)N(C)C(=O)[C@H](C2CCCC2)N(C)C(=O)C2(CCC2)NC(=O)[C@H](CCC(F)F)N(C)C(=O)[C@H](CCc2cc(F)c(C(F)(F)F)c(F)c2)NC(=O)CN(C)C(=O)[C@H](Cc2ccc(C(F)(F)F)cc2)N2CC/C=C\C[C@@H](C2=O)N(C)C(=O)CN(C)C1=O [PP1404] | A (a compound having 10 or more and less than 20 is denoted as A) | A (a compound having 10 or more and less than 20 is denoted as A)
14 | 3.3 nM | CCO[C@@H]1C[C@H]2C(=O)NC3(CCCC3)C(=O)N(C)[C@@H](C3CCCC3)C(=O)N(C)[C@H](C(=O)N(C)C)CC(=O)N(C)[C@@H](CC3CC3)C(=O)N[C@@H]([C@@H](C)CC)C(=O)N(C)CC(=O)N(C)[C@H]3C[C@@H](C)[C@@H](C)CN(C3=O)[C@@H](Cc3ccc(C(F)(F)F)cc3)C(=O)N(C)CC(=O)N[C@@H](CCc3cc(F)c(C(F)(F)F)c(F)c3)C(=O)N2C1 [PP1356] | B (a compound having 3 or more and less than 10 is denoted as B) | B (a compound having 3 or more and less than 10 is denoted as B)
15 | 72.6 nM | CCO[C@@H]1C[C@H]2C(=O)NC3(CCOCC3)C(=O)N(C)[C@@H](C3CCCC3)C(=O)N(C)[C@H](C(=O)N(C)C)CC(=O)N(C)[C@@H](CC)C(=O)N[C@@H]([C@@H](C)CC)C(=O)N(C)CC(=O)N(C)[C@H]3C/C=C\CCN(C3=O)[C@@H](Cc3ccc(C(F)(F)F)cc3)C(=O)N(C)CC(=O)N[C@@H](CCc3cc(F)c(C(F)(F)F)c(F)c3)C(=O)N2C1 [PP1279] | A (a compound having 10 or more and less than 20 is denoted as A) | A (a compound having 10 or more and less than 20 is denoted as A)
